Experimental findings from patent publication US8066971B2, “Targeting pulmonary epithelium using ADRP” (Los Angeles Biomedical Reseach Institute at Harbor UCLA …, priority 2005, dated 2011) are described below.

Assay [1] relates to SP-B protein levels in A549 cells. As to the kind of experiment: SP-B protein levels in A549 cells (Western blot). The assay is classed as cell-based. To be noted: cycloheximide 5 :g/ml, concomitant with ADRP-LDs. Here is the method:
(§1) Monolayer cultures of A549 cells were incubated with ADRP-LDs labeled with either tritium or GFP as follows: ^3H-labeled (10,000 dpm/min/20 μg triacylglycerol) ADRP-LDs were isolated from fetal rat lung fibroblasts, as described above. Where indicated, incubations were carried out in the presence of either actinomycin D or cyclohexamide to determine if de novo mRNA or protein synthesis, respectively, was involved in LD processing. Elsewhere, incubations were conducted in the presence of ADRP antibody (rabbit anti-ADRP IgG kindly provided by Dr. Constantine Londos, NIDDK) to determine the specificity of the ADRP effect on LD uptake. At the end of the incubation, the cells were processed for ^3H-satPC (Floros et al. (1987) J Biol Chem. 262(28): 13592-13598), expression of SP-B by RT-PCR and Western Blot (Rehan et al. (2002) Mol Genet Metab. 76(1): 46-56), or for confocal microscopy (see below for method).
(§2) Western blot and RT-PCR for SP-B were performed as described by Rehan et al. (2002) Mol Genet Metab. 76(1): 46-56.

The test system of assay [2] is SP-B mRNA expression by A549 cells. As to the kind of experiment: SP-B mRNA expression by A549 cells (RT-PCR). The assay is classed as cell-based. The settings on record: actinomycin D 1 μg/ml, concomitant incubation with LDs. As for the experimental part:
as §1, §2

The structures appear in SMILES notation. “Also recorded” adds a separate entry of the source. Starred links: 1 amine or outer side, 2 acyl side, 3 side chain; linkers in the order of their positions; H or OH if unused. Positions of bridges follow the written chain, without caps; N, C: chain ends. Non-standard residues stand in square brackets, D forms with d. Residues, ends and D or L forms follow the SMILES beside them. Chains are numbered I, II in the order given. Actinocin(9to1) = Cc1c2oc3c(C)ccc(C(=O)[*:1])c3nc-2c(C(=O)[*:2])c(N)c1=O; NMeV = CN[C@H](C(=O)O)C(C)C; Sar = CNCC(=O)O

In the case of `C[C@@H]1C[C@@H]([C@H](O)CC2CC(=O)NC(=O)C2)C(=O)[C@@H](C)C1` [cycloheximide], the “effect on ADRP-LD-stimulated SP-B protein increase” value in assay [1] is recorded as “blocked; also recorded: inhibited”.

For the compound `Cc1c2oc3c(C)ccc(C(=O)N[C@@H]4C(=O)N[C@H](C(C)C)C(=O)N5CCC[C@H]5C(=O)N(C)CC(=O)N(C)[C@@H](C(C)C)C(=O)O[C@@H]4C)c3nc-2c(C(=O)N[C@@H]2C(=O)N[C@H](C(C)C)C(=O)N3CCC[C@H]3C(=O)N(C)CC(=O)N(C)[C@@H](C(C)C)C(=O)O[C@@H]2C)c(N)c1=O` [Actinomycin D] (I: T[dV]P[Sar][NMeV] / II: T[dV]P[Sar][NMeV]; ester I:1-I:C, II:1-II:C; linker I:N-II:N via Actinocin(9to1)), the “effect on ADRP induction of SP-B mRNA expression” value in assay [2] was “blocked”.
